Patent US11680056B2, “MK2 inhibitors and uses thereof” (Xinthera, Inc., priority 2021, dated 2023)
Read-outs that look alike come from different tables or passages of the source.

How the values were obtained:
p38a/PRAK = p38a/PRAK (Homo sapiens (Human), UniProt Q16539); assay: p38a/PRAK biochemical assay: activation of PRAK by p38, FITC-HSP27 peptide phosphorylation (IMAP FP); conditions: 10-point 1:3 dilution, top dose 300 μM; 60 pM active p38a, 1 nM inactive PRAK, 10 μM ATP, 2 h incubation; read-out: p38a/PRAK Enzyme pIC50 (converted)
p38a/PRAK, sequence (Q16539 whole entry, the tested form may be a part): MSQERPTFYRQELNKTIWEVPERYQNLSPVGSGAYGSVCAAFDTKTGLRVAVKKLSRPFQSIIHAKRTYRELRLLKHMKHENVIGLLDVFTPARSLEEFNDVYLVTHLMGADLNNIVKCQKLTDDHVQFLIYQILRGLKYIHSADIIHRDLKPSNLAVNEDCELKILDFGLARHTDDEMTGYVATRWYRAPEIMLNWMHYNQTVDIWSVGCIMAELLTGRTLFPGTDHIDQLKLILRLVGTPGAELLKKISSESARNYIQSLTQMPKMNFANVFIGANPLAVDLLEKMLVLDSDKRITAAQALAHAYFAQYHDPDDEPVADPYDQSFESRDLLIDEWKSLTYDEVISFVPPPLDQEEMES
Description: (§1) Expression vectors of the recombinant MK2 and PRAK kinases were constructed by cloning of the codon optimized gene sequences of MK2 (Uniprot ID P49137, amino acid fragment F46-H400), or PRAK (Uniprot ID Q81W41, amino acid fragment M1-Q471) into pGEX-4T1 (GE) for over expression of these kinases with N-terminal GST-tag. Protein expression was carried out in E. coli BL21 by growing the hosts in TB medium, induction of protein expression with 0.5 mM IPTG at approximate 0.8 OD600, and incubation of the cultures at 18° C. for 14-20 hours afterwards. The harvested cells were resuspended in […] of Lysis buffer (50 mM Tris-HCl, pH 8.0, 500 mM NaCl, 1 mM DTT, 5% glycerol, and 1 mM PMSF) per gram of wet cell mass and homogenized at 4° C. in a microfluidizer (ATS, Suzhou, China) at 14,000 psi pressure, 3 passes. The cell lysates were clarified by centrifugation and the supernatants containing the GST-fusion proteins were purified by affinity chromatography using GSH-Sepharose (GE) gravity flow columns pre-equilibrated in Buffer A (50 mM Tris-HCl, pH 8.0, 500 mM NaCl, 1 mM DTT, and 5% glycerol). After thorough washing of the columns with Buffer A, the bound GST-proteins were eluted by Buffer B (50 mM Tris, pH 8.0, 500 mM NaCl, 1 mM DTT, 5% glycerol, 10 mM glutathione), followed by size-exclusion purification on Superdex 200 column equilibrated in Buffer A. The purified proteins were concentrated to approximately 1 mg/ml and stored at −80° C.
(§2) This study evaluates the inhibitory potency of invention compound on p38/MK2 pathway vs p38/PRAK pathway. More specially the compound concentration (IC50) was determined that inhibited half of the maximal activation of MK2 or PRAK by p38. MK2 activation study was set up without or with a serial of 10-point 1:3 dilution of invention compound at top dose of 1 or 1 μM, and PRAK activation study was set up without or with a serial of 10-point 1:3 dilution of invention compound at top dose of 300 μM. The MK2 and PRAK activity were determined by the phosphorylation level of HSP27 peptide conjugated with FITC.
(§3) After 2 h incubation of the reaction mixture with various concentration of invention compound (200 nL), 60 μL 1×IMAP solution Mixture (Molecular Devices, Cat R8127) was added to the reaction mixture and incubated for another half hour. The signal was then read by Synergy™ Neo2 Multi-Mode Microplate Reader with filter setting (Ex/Em=485 nm/FITC FP-P pol 528 nm & FITC FP-S pol 528 nm)
(§4) The signal was then normalized to vehicle control and fitted in Xfit to generate IC50. The selectivity of MK2 over PRAK was calculated by the formular Selectivity=IC50 of PRAK/IC50 of MK2.

p38a/MK2 = p38a/MK2 (Homo sapiens (Human), UniProt P49137+Q16539); assay: p38a/MK2 biochemical assay: activation of MK2 by p38, FITC-HSP27 peptide phosphorylation (IMAP FP); conditions: 10-point 1:3 dilution, 60 pM active p38a, 1 nM inactive MK2, 10 μM ATP, 2 h incubation
p38a/MK2, sequence (P49137 46-400): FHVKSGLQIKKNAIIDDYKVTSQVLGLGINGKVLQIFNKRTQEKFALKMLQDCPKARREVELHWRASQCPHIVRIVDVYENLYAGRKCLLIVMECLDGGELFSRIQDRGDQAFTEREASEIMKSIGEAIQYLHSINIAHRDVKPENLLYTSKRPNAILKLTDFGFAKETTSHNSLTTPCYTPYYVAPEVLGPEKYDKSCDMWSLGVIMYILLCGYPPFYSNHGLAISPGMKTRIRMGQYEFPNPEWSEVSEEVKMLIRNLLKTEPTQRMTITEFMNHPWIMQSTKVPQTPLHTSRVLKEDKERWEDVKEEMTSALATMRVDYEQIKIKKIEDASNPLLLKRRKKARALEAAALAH
p38a/MK2, sequence (Q16539 whole entry): as the sequence (Q16539 whole entry, the tested form may be a part) above
Description: as §1
as §2, with “1:[…],” for “1:3 dilution of invention compound at top dose of 1 or 1 μM,”
as §3, §4

[1] = top dose 10 μM, read-out: p38a/MK2 (10 μM) Enzyme pIC50 (converted)

SMILES	IC50 (p38a/PRAK) [µM]	p38a/MK2 (10 μM) Enzyme pIC50 (p38a/MK2; top dose 10 μM)	IC50 (p38a/MK2; [1]) [µM]	IC50 (p38a/MK2; top dose 1 μM, read-out: p38a/MK2 (1 μM) Enzyme pIC50 (converted)) [µM]
Cc1cnc(-c2nc(C(C)(C)O)cs2)cc1-n1c(C)cc(OCc2ncc(F)cc2F)c(Cl)c1=O (atropisomer, axis not shown) [Example 2, 3-chloro-4-[(3,5-difluoropyridin-2-yl)methoxy]-2′-[4-(2-hydroxypropan-2-yl)-1,3-thiazol-2-yl]-5′,6-dimethyl-[1,4′-bipyridin]-2-one]	3.98	7.5	–	–
Cc1cnc(-c2ccnc(C3(O)CC3)n2)cc1-n1c(C)cc(OCc2ncc(F)cc2F)c(Cl)c1=O (atropisomer, axis not shown) [Example 3, 3-chloro-4-[(3,5-difluoropyridin-2-yl)methoxy]-2′-[2-(1-hydroxycyclopropyl)pyrimidin-4-yl]-5′,6-dimethyl-[1,4′-bipyridin]-2-one]	5.01	–	0.02	–
Cc1cnc(-c2ccnc(C(C)(C)CO)n2)cc1-n1c(C)cc(OCc2ncc(F)cc2F)c(Cl)c1=O (atropisomer, axis not shown) [Example 4, 3-chloro-4-[(3,5-difluoropyridin-2-yl)methoxy]-2′-[2-(1-hydroxy-2-methylpropan-2-yl)pyrimidin-4-yl]-5′,6-dimethyl-[1,4′-bipyridin]-2-one]	7.94	7.8	–	–
Cc1cnc(-c2ccnc(C(C)(C)C(F)F)n2)cc1-n1c(C)cc(OCc2ncc(F)cc2F)c(Cl)c1=O (atropisomer, axis not shown) [Example 5, 3-chloro-2′-[2-(1,1-difluoro-2-methylpropan-2-yl)pyrimidin-4-yl]-4-[(3,5-difluoropyridin-2-yl)methoxy]-5′,6-dimethyl-[1,4′-bipyridin]-2-one]	3.16	7.8	–	–
COc1cnc(-c2ccnc(C(C)(C)O)n2)cc1-n1c(C)cc(OCc2ncc(F)cc2F)c(Cl)c1=O (atropisomer, axis not shown) [Example 7, 3-chloro-4-[(3,5-difluoropyridin-2-yl)methoxy]-2′-[2-(2-hydroxypropan-2-yl)pyrimidin-4-yl]-5′-methoxy-6-methyl-[1,4′-bipyridin]-2-one]	63.1	–	0.501	–
Cc1cnc(-c2nc(C(C)(C)O)cs2)cc1-n1c(C)cc(OCc2ncc(F)cc2F)cc1=O (atropisomer, axis not shown) [Example 8, 4-[(3,5-difluoropyridin-2-yl)methoxy]-2′-[4-(2-hydroxypropan-2-yl)-1,3-thiazol-2-yl]-5′,6-dimethyl-[1,4′-bipyridin]-2-one]	> 316	<5.0	–	–
Cc1cnc(-c2cc(C3CC3)nc(C(C)(C)O)n2)cc1-n1c(C)cc(OCc2ncc(F)cc2F)c(Cl)c1=O (atropisomer, axis not shown) [Example 10, 3-chloro-2′-[6-cyclopropyl-2-(2-hydroxypropan-2-yl)pyrimidin-4-yl]-4-[(3,5-difluoropyridin-2-yl)methoxy]-5′,6-dimethyl-[1,4′-bipyridin]-2-one]	5.01	5.8	–	–
Cc1cnc(-c2cccc([C@](C)(O)CO)n2)cc1-n1c(C)cc(OCc2ncc(F)cc2F)c(Cl)c1=O (atropisomer, axis not shown) [Example 14, 3-chloro-4-[(3,5-difluoropyridin-2-yl)methoxy]-2′-[6-(1,2-dihydroxypropan-2-yl)pyridin-2-yl]-5′,6-dimethyl-[1,4′-bipyridin]-2-one]	20	7.7	–	–
Cc1cnc(-c2ccnc(C(C)(C)O)n2)cc1-n1c(C)cc(COc2ncc(F)cc2F)c(Cl)c1=O (atropisomer, axis not shown) [Example 15, 3-chloro-4-{[(3,5-difluoropyridin-2-yl)oxy]methyl}-2′-[2-(2-hydroxypropan-2-yl)pyrimidin-4-yl]-5′,6-dimethyl-[1,4′-bipyridin]-2-one]	158	5.4	–	–
Cc1cnc(-c2cccc([C@H](O)CO)n2)cc1-n1c(C)cc(OCc2ncc(F)cc2F)c(Cl)c1=O (atropisomer, axis not shown) [Example 16, 3-chloro-4-[(3,5-difluoropyridin-2-yl)methoxy]-2′-[6-(1,2-dihydroxyethyl)pyridin-2-yl]-5′,6-dimethyl-[1,4′-bipyridin]-2-one]	15.8	7.4	–	–
Cc1cnc(-c2ccnc(C(C)(C)O)c2F)cc1-n1c(C)cc(OCc2ncc(F)cc2F)c(Cl)c1=O (atropisomer, axis not shown) [Example 56A, 3-chloro-4-[(3,5-difluoropyridin-2-yl)methoxy]-1-[3′-fluoro-2′-(2-hydroxypropan-2-yl)-5-methyl-[2,4′-bipyridin]-4-yl]-6-methylpyridin-2-one]	1.58	–	–	0.002
Cc1cnc(-n2nc(C(C)(C)O)cc2C)cc1-n1c(C)cc(OCc2ncc(F)cc2F)c(Cl)c1=O (single isomer, unassigned) [Example 19A, rel-3-chloro-4-((3,5-difluoropyridin-2-yl)methoxy)-2′-(3-(2-hydroxypropan-2-yl)-5-methyl-1H-pyrazol-1-yl)-5′,6-dimethyl-2H-[1,4′-bipyridin]-2-one]	5.01	–	–	–
Cc1cnc(-n2nc(C(C)(C)O)cc2C)cc1-n1c(C)cc(OCc2ncc(F)cc2F)c(Cl)c1=O (single isomer, unassigned) [Example 19B, rel-3-chloro-4-((3,5-difluoropyridin-2-yl)methoxy)-2′-(3-(2-hydroxypropan-2-yl)-5-methyl-1H-pyrazol-1-yl)-5′,6-dimethyl-2H-[1,4′-bipyridin]-2-one]	> 316	–	–	–
Cc1cnc(-n2nc(C(C)(C)O)cc2C2CC2)cc1-n1c(C)cc(OCc2ncc(F)cc2F)c(Cl)c1=O (single isomer, unassigned) [Example 20A, rel-3-chloro-2′-[5-cyclopropyl-3-(2-hydroxypropan-2-yl)pyrazol-1-yl]-4-[(3,5-difluoropyridin-2-yl)methoxy]-5′,6-dimethyl-[1,4′-bipyridin]-2-one]	5.01	–	–	–
Cc1cnc(-n2nc(C(C)(C)O)cc2C2CC2)cc1-n1c(C)cc(OCc2ncc(F)cc2F)c(Cl)c1=O (single isomer, unassigned) [Example 20B, rel-3-chloro-2′-[5-cyclopropyl-3-(2-hydroxypropan-2-yl)pyrazol-1-yl]-4-[(3,5-difluoropyridin-2-yl)methoxy]-5′,6-dimethyl-[1,4′-bipyridin]-2-one]	> 316	–	–	–
Cc1cnnc(COc2cc(C)n(-c3cc(-c4ccnc(C(C)(C)O)n4)ncc3C)c(=O)c2Cl)c1 (single isomer, unassigned) [Example 28B, rel-3-chloro-2′-[2-(2-hydroxypropan-2-yl)pyrimidin-4-yl]-5′,6-dimethyl-4-[(5-methylpyridazin-3-yl)methoxy]-[1,4′-bipyridin]-2-one]	> 316	–	–	–
Cc1nn(-c2ccnc(C(C)(C)O)n2)cc1-n1c(C)cc(OCc2ncc(F)cc2F)c(Cl)c1=O [Example 30, 3-chloro-4-[(3,5-difluoropyridin-2-yl)methoxy]-1-{1-[2-(2-hydroxypropan-2-yl)pyrimidin-4-yl]-3-methylpyrazol-4-yl}-6-methylpyridin-2-one]	25.1	–	–	–
